Measurements from patent US11654183B2 (INTARCIA THERAPEUTICS, INC., priority 2017, dated 2023).
Where two headings read alike, the source gives them in different places.

Legend:
[1] = cited from earlier work
[2] = human, in vivo, po
Experimental: APAP, a marker of gastric emptying, was administered on Day (D)1 followed by the cocktail on D2. […] APAP was administered again on D27 and the cocktail on D28.

[3] = compared to OC alone, cited from earlier work; for decrease of Cmax: repeated daily doses of OC given 30 minutes after BYETTA (10 mcg BID), healthy female subjects; for decrease of mean Cmax: repeated daily doses of OC one hour prior to BYETTA
[4] = Crossover study of ITCA 650 on steady-state PK and PD of the combination oral contraceptive Levora; settings: ITCA 650 60 mcg/day, healthy premenopausal women
Experimental: Twenty-eight (28) healthy premenopausal women on a stable regimen of an OC participated in a randomized, double-blind, placebo-controlled, 2-period crossover study. […] The study included a 2-week run-in on Levora and 2 treatment periods of 28 days each. […] Subjects were crossed over to the alternative treatment and procedures were repeated in Period 2. The OC was administered daily through D28 of each period.

[5] = 1000 mg acetaminophen elixir given 1 hour after 10 mcg BYETTA injection
[6] = 1000 mg acetaminophen elixir given 2 hours after 10 mcg BYETTA injection
[7] = 1000 mg acetaminophen elixir given 4 hours after 10 mcg BYETTA injection
[8] = 1000 mg acetaminophen elixir given with 10 mcg BYETTA (0 h)
[9] = acetaminophen given 1 hour before BYETTA injection

SMILES	Tmax [1, 5] [h]	decrease of Cmax [1, 5] [%]	decrease of acetaminophen AUC [1, 5] [%]	Tmax [1, 6] [h]	decrease of Cmax [1, 6] [%]	decrease of acetaminophen AUC [1, 6] [%]	Tmax [1, 7] [h]	decrease of Cmax [1, 7] [%]	decrease of acetaminophen AUC [1, 7] [%]	Tmax [1, 8] [h]	decrease of Cmax [1, 8] [%]	decrease of acetaminophen AUC [1, 8] [%]	AUC change [1, 9]	Cmax change [1, 9]	Tmax change [1, 9]	Tmax ([1]; control period (without BYETTA)) [h]	effect of ITCA 650 on PK of the co-administered drug [2]	decrease of Cmax [3] [%]	decrease of mean Cmax [3]	effect of ITCA 650 on PK [4]
CC(=O)Nc1ccc(O)cc1 [acetaminophen]	4.2	56	23	3.3	54	24	1.6	41	14	0.9	37	21	not significantly changed	not significantly changed	not significantly changed	0.6	minimal effect			
C#C[C@]1(O)CC[C@H]2[C@@H]3CCc4cc(O)ccc4[C@H]3CC[C@@]21C [ethinyl estradiol]																		45	15%	
C#C[C@]1(O)CC[C@H]2[C@@H]3CCC4=CC(=O)CC[C@@H]4[C@H]3CC[C@@]21CC [levonorgestrel]																		27	not significantly changed	No effect
